Reference: paper PMC7345905, “Microbial Metabolite Urolithin B Inhibits Recombinant Human Monoamine Oxidase A Enzyme” (Metabolites, 2020)
Several values for one entry are separate records, joined by “and”; a condition that tells them apart may be missing. Identical values can stand only once.

Molecular target: T1, human recombinant MAO-A (Homo sapiens, UniProt P21397)
T1 construct: purchased Sigma-Aldrich
T1 sequence (P21397 1-527): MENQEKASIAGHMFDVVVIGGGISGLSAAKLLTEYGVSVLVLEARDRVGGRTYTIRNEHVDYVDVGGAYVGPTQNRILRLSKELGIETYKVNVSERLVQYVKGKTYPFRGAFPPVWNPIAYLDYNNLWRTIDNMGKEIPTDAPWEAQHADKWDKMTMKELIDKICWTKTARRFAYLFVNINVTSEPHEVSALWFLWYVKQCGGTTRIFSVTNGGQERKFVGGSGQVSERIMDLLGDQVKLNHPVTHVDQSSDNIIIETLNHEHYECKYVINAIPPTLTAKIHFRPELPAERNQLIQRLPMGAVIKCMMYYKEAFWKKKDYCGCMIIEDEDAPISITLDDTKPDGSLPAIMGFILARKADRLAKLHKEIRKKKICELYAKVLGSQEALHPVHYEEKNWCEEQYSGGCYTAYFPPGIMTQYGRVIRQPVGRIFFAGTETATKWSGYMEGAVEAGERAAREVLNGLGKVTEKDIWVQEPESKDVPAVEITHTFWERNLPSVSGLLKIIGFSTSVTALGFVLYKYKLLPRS
Assay: MAO-A inhibition kinetics (variable substrate, Lineweaver–Burk plot)
Type: biochemical
Parameters: Michaelis-Menten best-fit Vmax of MAO-A / Michaelis-Menten best-fit Vmax of MAO-A, Average: unit not given here
Conditions: for MAO-A assay signal (luminescence) / Transformed (reciprocal of MAO-A assay signal) / Michaelis-Menten best-fit Vmax of MAO-A: N=1-3
Procedure: MAO inhibition assays were performed using a MAO-Glo™ Assay kit (Promega) according to the manufacturer’s instructions. Briefly, 1 µg of human recombinant MAO-A and MAO-B enzyme isoforms were incubated with 160 and 16 µM of MAO substrates, respectively. […] The enzyme reaction was quenched by the addition of a luciferin detection reagent. […] An equal volume of dimethyl sulfoxide (0.1%) was added to the enzyme assay as a control. After 1 h of incubation, the luminescence was measured with a multimode microplate reader (Synergy HT, BioTek, Winooski, VT, USA) to determine the MAO enzyme activities. Initially, the inhibition potential of all the test compounds was evaluated at a concentration of 100 μM. The control reaction (with no inhibitor) with vehicle (DMSO 0.1%) was set at 100% activity. To determine IC50 of the test compounds, the dose dependent enzyme assays were performed. We used range of 0.1 to 50 μM concentrations for MAO-A and 0.1 to 200 μM concentrations of test compounds for the MAO-B enzyme activities. The type of enzyme inhibition was determined using variable concentrations of MAO-A substrate (10–360 µM) and MAO-B substrate (2–64 µM) for the respective enzyme assay. […] A Lineweaver–Burk double reciprocal plot was generated, and the mode of inhibition was determined by visual examination of the plot. The slope of the reciprocal plots was plotted against the inhibitor concentrations and determined the x-axis intercept that represented the inhibitor constant, Ki value.
All experiments were performed in triplicates and data are presented as mean ± standard error of the mean (SEM). The raw data are provided in Supplementary Data, Table S1. Enzyme kinetic data were analyzed using the Lineweaver–Burk plot. Statistical analysis was performed by Student’s t-test using GraphPad Prism Ver. 7.0 (GraphPad Prism Software Inc., San Diego, CA, USA).

[1] = UroC 15 µM, MAO-A substrate 10 uM
[2] = UroC 15 µM, MAO-A substrate 20 uM
[3] = UroC 15 µM, MAO-A substrate 40 uM
[4] = UroC 15 µM, MAO-A substrate 80 uM
[5] = UroC 15 µM, MAO-A substrate 160 uM
[6] = UroC 15 µM, MAO-A substrate 320 uM
[7] = UroC 60 µM, MAO-A substrate 10 uM
[8] = UroC 60 µM, MAO-A substrate 20 uM
[9] = UroC 60 µM, MAO-A substrate 40 uM
[10] = UroC 60 µM, MAO-A substrate 80 uM
[11] = UroC 60 µM, MAO-A substrate 160 uM
[12] = UroC 60 µM, MAO-A substrate 320 uM

- mode of inhibition of MAO-A (Lineweaver–Burk plot): mixed mode of inhibition
- MAO-A assay signal (luminescence), Average [1]: 1825
- MAO-A assay signal (luminescence) [1]: 1969 and 1718 and 1788
- MAO-A assay signal (luminescence), Average [2]: 3291
- MAO-A assay signal (luminescence) [2]: 3541 and 3116 and 3216
- MAO-A assay signal (luminescence), Average [3]: 5930.67
- MAO-A assay signal (luminescence) [3]: 6537 and 5679 and 5576
- MAO-A assay signal (luminescence), Average [4]: 11350.3
- MAO-A assay signal (luminescence) [4]: 12348 and 10938 and 10765
- MAO-A assay signal (luminescence), Average [5]: 17552.3
- MAO-A assay signal (luminescence) [5]: 18484 and 16889 and 17284
- MAO-A assay signal (luminescence), Average [6]: 26455.7
- MAO-A assay signal (luminescence) [6]: 27220 and 26215 and 25932
- Transformed (reciprocal of MAO-A assay signal), Average (UroC 15 µM, [1/S] 0.003125): 3.78e-5
- Transformed (reciprocal of MAO-A assay signal) (UroC 15 µM, [1/S] 0.003125): 3.674e-5 and 3.815e-5 and 3.856e-5
- Transformed (reciprocal of MAO-A assay signal), Average (UroC 15 µM, [1/S] 0.00625): 5.697e-5
- Transformed (reciprocal of MAO-A assay signal) (UroC 15 µM, [1/S] 0.00625): 5.41e-5 and 5.921e-5 and 5.7857e-5
- Transformed (reciprocal of MAO-A assay signal), Average (UroC 15 µM, [1/S] 0.0125): 8.81e-5
- Transformed (reciprocal of MAO-A assay signal) (UroC 15 µM, [1/S] 0.0125): 8.098e-5 and 9.142e-5 and 9.289e-5
- Transformed (reciprocal of MAO-A assay signal), Average (UroC 15 µM, [1/S] 0.025): 0.0001686
- Transformed (reciprocal of MAO-A assay signal) (UroC 15 µM, [1/S] 0.025): 0.000153 and 0.0001761 and 0.0001793
- Transformed (reciprocal of MAO-A assay signal), Average (UroC 15 µM, [1/S] 0.05): 0.0003039
- Transformed (reciprocal of MAO-A assay signal) (UroC 15 µM, [1/S] 0.05): 0.0002824 and 0.0003209 and 0.0003109
- Transformed (reciprocal of MAO-A assay signal), Average (UroC 15 µM, [1/S] 0.1): 0.0005479
- Transformed (reciprocal of MAO-A assay signal) (UroC 15 µM, [1/S] 0.1): 0.0005079 and 0.0005821 and 0.0005593
- MAO-A assay signal (luminescence), Average [7]: 728
- MAO-A assay signal (luminescence) [7]: 706 and 793 and 685
- MAO-A assay signal (luminescence), Average [8]: 1221
- MAO-A assay signal (luminescence) [8]: 1198 and 1213 and 1252
- MAO-A assay signal (luminescence), Average [9]: 2305.33
- MAO-A assay signal (luminescence) [9]: 2310 and 2236 and 2370
- MAO-A assay signal (luminescence), Average [10]: 4337.33
- MAO-A assay signal (luminescence) [10]: 4338 and 4394 and 4280
- MAO-A assay signal (luminescence), Average [11]: 8033.33
- MAO-A assay signal (luminescence) [11]: 7953 and 7801 and 8346
- MAO-A assay signal (luminescence), Average [12]: 14867.3
- MAO-A assay signal (luminescence) [12]: 14760 and 14941 and 14901
- Transformed (reciprocal of MAO-A assay signal), Average (UroC 60 µM, [1/S] 0.003125): 6.726e-5
- Transformed (reciprocal of MAO-A assay signal) (UroC 60 µM, [1/S] 0.003125): 6.775e-5 and 6.693e-5 and 6.711e-5
- Transformed (reciprocal of MAO-A assay signal), Average (UroC 60 µM, [1/S] 0.00625): 0.0001245
- Transformed (reciprocal of MAO-A assay signal) (UroC 60 µM, [1/S] 0.00625): 0.0001257 and 0.0001282 and 0.0001198
- Transformed (reciprocal of MAO-A assay signal), Average (UroC 60 µM, [1/S] 0.0125): 0.0002306
- Transformed (reciprocal of MAO-A assay signal) (UroC 60 µM, [1/S] 0.0125): 0.0002305 and 0.0002276 and 0.0002336
- Transformed (reciprocal of MAO-A assay signal), Average (UroC 60 µM, [1/S] 0.025): 0.0004338
- Transformed (reciprocal of MAO-A assay signal) (UroC 60 µM, [1/S] 0.025): 0.0004329 and 0.0004472 and 0.0004219
- Transformed (reciprocal of MAO-A assay signal), Average (UroC 60 µM, [1/S] 0.05): 0.000819
- Transformed (reciprocal of MAO-A assay signal) (UroC 60 µM, [1/S] 0.05): 0.0008347 and 0.0008244 and 0.0007987
- Transformed (reciprocal of MAO-A assay signal), Average (UroC 60 µM, [1/S] 0.1): 0.001374
- Transformed (reciprocal of MAO-A assay signal) (UroC 60 µM, [1/S] 0.1): 0.001416 and 0.001261 and 0.00146
- Michaelis-Menten best-fit Vmax of MAO-A, Average (in presence of UroC 15 uM): 50085
- Michaelis-Menten best-fit Vmax of MAO-A (in presence of UroC 15 uM): 47688 and 52039 and 50528
- Michaelis-Menten best-fit Vmax of MAO-A, Average (in presence of UroC 60 uM): 82346
- Michaelis-Menten best-fit Vmax of MAO-A (in presence of UroC 60 uM): 96239 and 71263 and 79536
- Ki (x-axis intercept of slopes of Lineweaver–Burk plots vs inhibitor concentration): 44.3 µM
Structure (SMILES): O=c1oc2cc(O)ccc2c2cc(O)c(O)cc12 [UC, urolithin-C]
